{"source": "patent US20180250230A1", "about": "“POLYMERS AND MICROSPHERES” (BIOCOMPATIBLES UK LIMITED, priority 2015, published 2018)", "data": [{"assay": "Elution of dyes from loaded microspheres in PBS", "assay_type": "physicochemical", "details": "from APTA43 microspheres; 1 ml in 200 mL PBS; initial loading 8.6 umols per mL of microspheres", "experimental": "Microspheres of each polymer formulation were loaded with equal quantities of each dye. 1 ml samples of dye-loaded microspheres were added to 200 mL of PBS in an amber jar. The microsphere suspensions were rolled to provide continuous mixing. At each time point the eluent was sampled and assayed by UV/Vis spectrophotmetery as above. The volume of sampled eluent was replaced with fresh PBS to maintain the elution volume. FIG. 5 illustrates the elution profiles of each dye from APTA43 microspheres.", "values": [{"compound": "O=S(=O)([O-])c1ccc2ccc3cccc4ccc1c2c34.[Na+]", "note": "[Formulation P1, 1-pyrenesulfonic acid sodium salt]", "initial loaded amount released within 60 minutes": "80%"}, {"compound": "O=S(=O)([O-])c1cc(S(=O)(=O)[O-])c2ccc3c(O)cc(O)c4ccc1c2c43.[Na+].[Na+]", "note": "[Formulation P2, 6,8-dihydroxypyrene-1,3-disulfonic acid disodium salt]", "initial loaded amount released within 60 minutes": "9%"}, {"compound": "O=S(=O)([O-])c1cc(O)c2ccc3c(S(=O)(=O)[O-])cc(S(=O)(=O)[O-])c4ccc1c2c34.[Na+].[Na+].[Na+]", "note": "[Formulation P3, 8-hydroxypyrene-1,3,6-trisulfonic acid trisodium salt]", "initial loaded amount released within 60 minutes": "approximately 3%"}, {"compound": "O.O=S(=O)([O-])c1cc(S(=O)(=O)[O-])c2ccc3c(S(=O)(=O)[O-])cc(S(=O)(=O)[O-])c4ccc1c2c43.[Na+].[Na+].[Na+].[Na+]", "note": "[Formulation P4, 1,3,6,8-pyrenetetrasulfonic acid hydrate tetrasodium salt]", "initial loaded amount released within 60 minutes": "approximately 3%"}]}]}
